Results as given in US12383523B2, “Magnetic resonance imaging drug containing deuterated sarcosine, and diagnostic method using said drug” (LIMITED LIABILITY COMPANY “SOLVEX” (“SOLVEX” LLC), priority 2018, dated 2025).

How the values were obtained:
[1] = freely diffusing deuterated compound
Description: In this case, the pharmacokinetics in a non-obvious way depends on a dose used (in particular, an excess of the renal reabsorption capacity for a particular compound can lead to its accelerated excretion). At that, the dose is limited by the toxicity and solubility of this compound.

[2] = high doses, prior art; cited from earlier work
[3] = Description: An important property of the deuterated component (sarcosine) of the diagnostic drug of the invention is sufficient resistance to metabolic exchange of deuterium for protium in vivo. This exchange lowers the concentration of the deuterium label, while simultaneously increasing the background signal of heavy water (DOH), which is evenly distributed throughout the body due to rapid diffusion. This process leads to a decrease in the contrast of the image, and also prevents quantitive evaluation of deuterated component concentration by comparison with the intensity of natural DOH signal.
[4] = up to the replacement of 10-30% of water in the body; cited from earlier work
[5] = Solubility in water for injection; type: physicochemical; settings: limits the dose to 10 mg in 1.0 ml
4T1 breast carcinoma = test: Deuterium tomography (2H MRI) of mice with 4T1 breast carcinoma after injection of the deuterated compound; settings: 10 mg intraperitoneally in 1.0 ml water, 20 g mouse
Description: The deuterium tomogram was recorded using FLASH (Fast low angle shot) pulse sequence. The excitation frequency was determined from the ^2H NMR spectrum and was on the instrument used: sfo1≈46.17452 MHz, rectangular excitation pulse 2560 Hz wide and 11.2 dB power, deflection angle FA=30°, repetition time TR=11.8 ms, echo time TE=4.07 ms, scan region10 cm×10 cm, scan matrix 50×50, slice thickness 3 cm, bandwidth 12500 Hz, total scan time 9 minutes 34 seconds (1024 accumulations).
In this example, experiments were performed on Balb/c mice grafted with 4T1 breast carcinoma (injection of 5×10^5 cells/60 μI under the left forepaw 12 days before the experiment). […] In 10 minutes after the injection, the animal was immobilized with isoflurane and placed on a heated bed in a tomograph.
An animal weighing 20 g was injected intraperitoneally with a solution:

For `[2H]O[2H]` [D2O], the “selective accumulation in various organs and tissues of a subject” value [1] was “do not show selective accumulation”.

For `CNCC(=O)O` [sarcosine], the LD50 [2] is given as > 5000 mg/kg.

In the case of `[2H]C([2H])([2H])[C@H](N)C(=O)O` [L-alanine-3,3,3-d3], the “loss of deuterium in vivo (exchange of deuterium for protium)” value [3] is reported as “lose deuterium in vivovery quickly”.

In the case of `[2H]C([2H])(N)C(=O)O` [glycine-2,2-d2], the “loss of deuterium in vivo (exchange of deuterium for protium)” value [3] is reported as “lose deuterium in vivovery quickly”.

In the case of `[2H]O` [DOH], the toxicity [4] is given as “non-toxic in very high doses”.

In the case of `[2H]c1c([2H])c([2H])c(C([2H])([2H])[C@H](N)C(=O)O)c([2H])c1[2H]` [L-phenylalanine-β, β, 2,3,4,5,6-d7], the solubility [5] is reported as “low solubility”, the “accumulation in tumor tissue” value (4T1 breast carcinoma) is reported as “do not accumulate in tumor tissue” and the “accumulation selectivity in various organs” value (4T1 breast carcinoma) is reported as “do not show accumulation selectivity”.
